Laboratory results reported in US20220089575A1, “FARNESOID X RECEPTOR AGONISTS AND USES THEREOF” (Metacrine, Inc., priority 2017, published 2022).

Target: T1, hFXR (Homo sapiens, UniProt Q96RI1)
T1 construct: expressed in transfected cells; host or cells: CV-1 cells
T1 sequence (Q96RI1 1-486): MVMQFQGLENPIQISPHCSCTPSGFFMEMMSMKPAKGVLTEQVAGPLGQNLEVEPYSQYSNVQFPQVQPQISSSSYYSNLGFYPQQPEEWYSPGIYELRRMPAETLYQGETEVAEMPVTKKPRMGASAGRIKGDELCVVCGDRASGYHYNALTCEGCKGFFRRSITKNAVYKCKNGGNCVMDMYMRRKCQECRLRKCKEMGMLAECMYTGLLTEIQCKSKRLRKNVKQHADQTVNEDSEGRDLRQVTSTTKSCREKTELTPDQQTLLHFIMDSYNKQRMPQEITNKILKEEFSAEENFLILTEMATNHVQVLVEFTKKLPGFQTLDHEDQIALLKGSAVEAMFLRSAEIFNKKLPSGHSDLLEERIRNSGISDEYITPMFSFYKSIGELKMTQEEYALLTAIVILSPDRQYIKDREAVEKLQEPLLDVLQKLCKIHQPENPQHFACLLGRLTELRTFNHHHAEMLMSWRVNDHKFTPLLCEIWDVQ
T1 sequence (P19793 1-462 partner): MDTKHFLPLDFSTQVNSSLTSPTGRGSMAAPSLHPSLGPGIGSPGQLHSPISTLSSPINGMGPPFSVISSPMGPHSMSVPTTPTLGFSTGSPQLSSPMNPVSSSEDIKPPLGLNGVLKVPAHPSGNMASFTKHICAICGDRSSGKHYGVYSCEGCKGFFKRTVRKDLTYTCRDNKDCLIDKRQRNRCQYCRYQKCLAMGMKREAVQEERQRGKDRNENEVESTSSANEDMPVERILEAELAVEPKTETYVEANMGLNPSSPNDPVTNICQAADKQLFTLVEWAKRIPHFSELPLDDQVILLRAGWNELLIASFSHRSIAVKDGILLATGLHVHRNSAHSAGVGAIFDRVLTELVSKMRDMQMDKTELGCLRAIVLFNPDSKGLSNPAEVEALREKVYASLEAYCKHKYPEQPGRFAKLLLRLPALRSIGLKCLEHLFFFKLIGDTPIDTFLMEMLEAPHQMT
Experiment: In Vitro FXR Assay (TK): TK-ECRE-luc reporter in transfected CV-1 cells
Type: cell-based
Conditions: 18 hrs, luminescence, maximum efficacy of <25% of the Fexarmine control classified as '+'
In short: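 CV-1 cells transiently co-transfected with hFXR, hRXR, TK-ECRE-luc and pCMX-YFP plasmids in charcoal-stripped serum medium. Serially diluted compounds added, cells incubated 18 h at 37° C, then lysed and luminescence read.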

Row | Compound | EC50 [nM]
1 | CNC(=O)O[C@H]1CC[C@H](C(=O)N(CC23CCC(c4ccc(N(C)C)nc4)(CC2)CC3)c2cccc(-c3coc(C4CC4)n3)c2)CC1 [Compound 3, 4-((3-(2-Cyclopropyloxazol-4-yl)phenyl)((4-(6-(dimethylamino)pyridin-3-yl)bicyclo[2.2.2]octan-1-yl)methyl)carbamoyl)cyclohexyl trans-methylcarbamate] | ≤ 250
2 | COc1ccc([C@H]2CC[C@H](CN(c3cc(-c4coc(C5CC5)n4)ccn3)C(=O)[C@H]3CC[C@H](OC(=O)N4CC(O)C4)CC3)CC2)nc1C#N [Compound 7.72, trans-4-(((trans-4-(6-Cyano-5-methoxypyridin-2-yl)cyclohexyl)methyl)(4-(2-cyclopropyloxazol-4-yl)pyridine-2-yl)carbamoyl)cyclohexyl 3-hydroxyazetidine-1-carboxylate] | ≤ 250
3 | CCOC(=O)C[C@H]1CC[C@H](C(=O)N(C[C@H]2CC[C@H](c3ccc(OC)c(C#N)n3)CC2)c2cc(-c3cnn(C(C)C)c3)ccn2)CC1 [Compound 18.22, Ethyl 2-(trans-4-(((trans-4-(6-cyano-5-methoxypyridin-2-yl)cyclohexyl)methyl)(4-(1-isopropyl-1H-pyrazol-4-yl)pyridin-2-yl)carbamoyl)cyclohexyl) acetate] | ≤ 250
4 | CCC1CN(C(=O)O[C@H]2CC[C@H](C(=O)N(C[C@H]3CC[C@H](c4ccc(OC)c(C)n4)CC3)c3cccc(-c4cnn(C(C)C)c4)c3)CC2)C1 [Compound 7.60, trans-4-((3-(1-Isopropyl-1H-pyrazol-4-yl)phenyl)((trans-4-(5-methoxy-6-methylpyridin-2-yl)cyclohexyl)methyl)carbamoyl)cyclohexyl 3-ethylazetidine-1-carboxylate] | ≤ 250
5 | COc1ccc([C@H]2CC[C@H](CN(c3cc(-c4coc(C(C)C)n4)ccn3)C(=O)[C@H]3CC[C@H](OC(=O)N4CCOCC4)CC3)CC2)nc1C [Compound 6, trans-4-((4-(2-Isopropyloxazol-4-yl)pyridine-2-yl)((trans-4-(5-methoxy-6-methylpyridin-2-yl)cyclohexyl)methyl)carbamoyl)cyclohexyl morpholine-4-carboxylate] | ≤ 250

Second part, the compound after the results:

Row | EC50 [nM] | Compound
6 | ≤ 250 | CNC(=O)O[C@H]1CC[C@H](C(=O)N(C[C@H]2CC[C@H](c3ccc4c(c3)c(F)nn4C)CC2)c2cccc(-c3cnn(C4CC4)c3)c2)CC1 [Compound 1.09, trans-4-((3-(1-Cyclopropyl-1H-pyrazol-4-yl)phenyl)((trans-4-(3-fluoro-1-methyl-1H-indazol-5-yl)cyclohexyl)methyl)carbamoyl)cyclohexyl methylcarbamate]
7 | ≤ 250 | COc1ccc([C@H]2CC[C@H](CN(c3cccc(-c4cnn(C5CC5)c4)c3)C(=O)[C@H]3CC[C@H](c4noc(=O)[nH]4)CC3)CC2)cc1C [Compound 34, trans-N-(3-(1-Cyclopropyl-1H-pyrazol-4-yl)phenyl)-N-((trans-4-(4-methoxy-3-methylphenyl)cyclohexyl)methyl)-4-(5-oxo-4,5-dihydro-1,2,4-oxadiazol-3-yl)cyclohexanecarboxamide]
8 | ≤ 250 | COC(=O)N[C@H]1CC[C@H](C(=O)N(C[C@H]2CC[C@H](c3ccc(OC)c(C)c3)CC2)c2cccc(-c3cnn(C4CC4)c3)c2)CC1 [Compound 26, Methyl (trans-4-((3-(1-cyclopropyl-1H-pyrazol-4-yl)phenyl)((trans-4-(4-methoxy-3-methylphenyl)cyclohexyl)methyl)carbamoyl)cyclohexyl)carbamate]
9 | ≤ 250 | CNC(=O)O[C@H]1CC[C@H](C(=O)N(C[C@H]2CC[C@H](c3ccc(OC)c(C)n3)CC2)c2cccc(-c3ccc(N(C)C)nc3)c2)CC1 [Compound 5.41, trans-4-((3-(6-((Dimethylamino)pyridine-3-yl)phenyl)((trans-4-(5-methoxy-6-methylpyridin-2-yl)cyclohexyl)methyl)carbamoyl)cyclohexyl methylcarbamate]
